The assay has as its target T1, PTK2 (Homo sapiens, UniProt Q05397).
T1 construct: purchased Invitrogen PV3832
Kind of assay: PTK2 enzyme test Assay 1 (DELFIA, poly-Glu-Tyr substrate, PT60 antibody). It counts as biochemical. The note with it: Assay 1 (values without *); 1 h pre-incubation, 50 μM ATP mix, final DMSO 2%. The procedure:
This test uses active PTK2 enzyme (Invitrogen Code PV3832) and poly-Glu-Tyr (4:1, Sigma P-0275) as the kinase substrate. The kinase activity is detected through the phosphorylation of the substrate in a DELFIA™ assay. The phosphorylated substrate is detected with the europium-labelled phosphotyrosine antibody PT60 (Perkin Elmer, No.: AD00400).
In order to determine concentration-activity curves with PTK2-inhibitors the compounds are serially diluted in 10% DMSO/H2O and 10 μL of each dilution are placed in each well of a 96-well microtitre plate (clear plate with a U-shaped base, Greiner No. 650101) (the inhibitors are tested in duplicates) and mixed with 10 μL/well of PTK2 kinase (0.01 μg/well). PTK2 kinase has been correspondingly diluted beforehand with kinase dilution buffer (20 mM TRIS/HCl pH 7.5, 0.1 mM EDTA, 0.1 mM EGTA, 0.286 mM sodium orthovanadate, 10% glycerol with the addition of freshly prepared BSA (fraction V, 1 mg/mL) and DTT (1 mM)). The test compound and the PTK2 kinase are pre-incubated for 1 h at RT and shaken at 500 revolutions per min. The reaction is started by the addition of 10 μL/well poly (Glu,Tyr) substrate (25 μg/well poly (Glu, Tyr), 0.05 μg/well biotinylated poly (Glu,Tyr) dissolved in 250 mM TRIS/HCl pH 7.5, 9 mM DTT)—the final concentration of DMSO is 2%. Then 20 μL of ATP Mix (30 mM TRIS/HCl pH 7.5, 0.02% Brij, 0.2 mM sodium orthovanadate, 10 mM magnesium acetate, 0.1 mM EGTA, 1× phosphatase inhibitor cocktail 1 (Sigma, No.: P2850), 50 μM ATP (Sigma, No.: A3377; 15 mM stock solution)) are added. After 1 h of kinase reaction (the plates are shaken at 500 rpm), the reaction is stopped by the addition of 12 μL/well 100 mM EDTA, pH 8.0 and shaken for a further 5 min at RT (500 rpm). 55 μL of the reaction mixture are transferred into a streptavidin plate (Strepta Well High Bind (transparent, 96-well) made by Roche, No.: 11989685001) and incubated for 1 h at RT (shaking at 500 rpm). Then the microtitre plate is washed three times with 200 μL/well D-PBS (Invitrogen, No. 14190). 100 μL of a solution containing DELFIA Eu-N1 Anti-Phosphotyrosine PT60 antibody (Perkin Elmer, No.: AD0040, diluted 1:2000 in DELFIA test buffer (Perkin Elmer, No.: 1244-111)) is then added and the mixture is incubated for 1 h at RT (shaking at 500 rpm). Then the plate is washed three times with 200 μL/well DELFIA washing buffer (Perkin Elmer, No.: 1244-114), 200 μL/well strengthening solution (Perkin Elmer, No.: 1244-105) are added and the mixture is incubated for 10 min at RT (shaking at 300 rpm).
The time-delayed europium fluorescence is then measured in a microtitre plate reader (VICTOR^3, Perkin Elmer). […] Wells that contain test buffer instead of enzyme are used as a control of the background kinase activity.
The IC50 values are determined from analyses of the concentration activity by iterative calculation with the aid of a sigmoid curve analysis algorithm (FIFTY, based on GraphPAD Prism Version 3.03) with a variable Hill coefficient.
T1 sequence (Q05397 whole entry): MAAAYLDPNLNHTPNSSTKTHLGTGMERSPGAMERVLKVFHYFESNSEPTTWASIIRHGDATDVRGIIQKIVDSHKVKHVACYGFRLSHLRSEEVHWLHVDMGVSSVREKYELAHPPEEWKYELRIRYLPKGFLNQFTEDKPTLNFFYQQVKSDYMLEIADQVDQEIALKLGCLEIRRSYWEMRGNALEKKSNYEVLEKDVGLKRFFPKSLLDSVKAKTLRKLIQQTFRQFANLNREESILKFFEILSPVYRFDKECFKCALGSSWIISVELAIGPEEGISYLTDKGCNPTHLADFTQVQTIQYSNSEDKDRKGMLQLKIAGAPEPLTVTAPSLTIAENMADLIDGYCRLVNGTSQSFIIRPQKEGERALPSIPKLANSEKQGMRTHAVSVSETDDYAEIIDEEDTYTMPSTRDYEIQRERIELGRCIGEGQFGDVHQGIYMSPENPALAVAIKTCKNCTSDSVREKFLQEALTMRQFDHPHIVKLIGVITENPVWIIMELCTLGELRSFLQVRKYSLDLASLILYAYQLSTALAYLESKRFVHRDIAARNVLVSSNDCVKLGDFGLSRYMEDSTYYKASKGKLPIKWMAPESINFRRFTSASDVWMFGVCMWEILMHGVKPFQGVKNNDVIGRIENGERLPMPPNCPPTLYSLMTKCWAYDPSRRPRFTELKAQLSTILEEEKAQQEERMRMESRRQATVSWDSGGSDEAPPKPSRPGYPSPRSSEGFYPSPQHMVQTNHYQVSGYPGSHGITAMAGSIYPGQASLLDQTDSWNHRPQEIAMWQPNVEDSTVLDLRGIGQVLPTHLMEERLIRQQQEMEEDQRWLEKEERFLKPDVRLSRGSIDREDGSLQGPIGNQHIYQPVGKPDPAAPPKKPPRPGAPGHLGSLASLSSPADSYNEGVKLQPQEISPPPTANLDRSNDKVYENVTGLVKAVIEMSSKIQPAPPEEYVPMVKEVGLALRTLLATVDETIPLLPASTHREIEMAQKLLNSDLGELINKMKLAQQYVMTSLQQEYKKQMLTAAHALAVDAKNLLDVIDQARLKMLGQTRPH
As usually defined, the IC50 is the midpoint of a concentration-inhibition curve. A lower IC50 goes with higher potency. `COc1cc(C(=O)NC2CCN(C)CC2)ccc1Nc1ncc(C(F)(F)F)c(N[C@@H]2Cc3ccccc3[C@H]2NC(C)=O)n1` [Example I-1] yielded an IC50 of 2 nM.

The compound `COc1cc(C(=O)NCCN(C)C)ccc1Nc1ncc(C(F)(F)F)c(N[C@@H]2Cc3ccccc3[C@H]2NS(C)(=O)=O)n1` [Example I-3, N-(2-dimethylamino-ethyl)-4-[4-((1R,2R)-1-methanesulphonylamino-indan-2-ylamino)-5-trifluoromethyl-pyrimidin-2-ylamino]-3-methoxy-benzamide] gave an IC50 of 2 nM. Compound `COc1cc(C(=O)NC2CCN(C)CC2)ccc1Nc1ncc(C(F)(F)F)c(N[C@@H]2Cc3ccccc3[C@H]2N(C)S(C)(=O)=O)n1` [Example I-5, 4-{4-[(1R,2R)-1-(methanesulphonyl-methyl-amino)-indan-2-ylamino]-5-trifluoromethyl-pyrimidin-2-ylamino}-3-methoxy-N-(1-methyl-piperidin-4-yl)-benzamide] came in with an IC50 of 2 nM. Take `COc1cc(C(=O)NC2CCCN(C)C2)ccc1Nc1ncc(C(F)(F)F)c(N[C@@H]2Cc3ccccc3[C@H]2N(C)S(C)(=O)=O)n1` (stereo partly shown) [Example I-6]: the IC50 was 0.96 nM. The result for `COc1cc(C(=O)NC2CCC(N3CCN(CC4CC4)CC3)CC2)ccc1Nc1ncc(C(F)(F)F)c(N[C@@H]2Cc3ccccc3[C@H]2N(C)S(C)(=O)=O)n1` (stereo partly shown) [Example I-7] reads 1 nM; that for `COc1cc(C(=O)NC2CCN(C)CC2)ccc1Nc1ncc(C(F)(F)F)c(N[C@@H]2Cc3ccccc3[C@H]2NS(C)(=O)=O)n1` [Example I-8], 2 nM. On to `CNCc1ccc(Nc2ncc(C(F)(F)F)c(N[C@@H]3Cc4ccccc4[C@H]3NS(C)(=O)=O)n2)c(OC)c1` [Example I-9], for which 2 nM corresponded to half-maximal inhibition (IC50). This lies in the single-digit nanomolar range. As for `CNC(=O)c1ccc(Nc2ncc(C(F)(F)F)c(N[C@@H]3Cc4ccccc4[C@H]3NS(C)(=O)=O)n2)c(OC)c1` [Example I-10], 2 nM corresponded to half-maximal inhibition (IC50). For `CCN1CCC(NC(=O)c2ccc(Nc3ncc(C(F)(F)F)c(N[C@@H]4Cc5ccccc5[C@H]4NC(C)=O)n3)c(OC)c2)CC1` [Example I-11], the IC50 was 2 nM.

`COc1cc(C(=O)NC2CCC(N3CCN(CC4CC4)CC3)CC2)ccc1Nc1ncc(C(F)(F)F)c(N[C@@H]2Cc3ccccc3[C@H]2NC(C)=O)n1` (stereo partly shown) [Example I-12] returned an IC50 of 4 nM. In the case of `COCCN1CCC(NC(=O)c2ccc(Nc3ncc(C(F)(F)F)c(N[C@@H]4Cc5ccccc5[C@H]4NC(C)=O)n3)c(OC)c2)CC1` [Example I-13], half-maximal inhibition (IC50) required 3 nM. Regarding `COc1cc(C(=O)NC2CCCN(C)C2)ccc1Nc1ncc(C(F)(F)F)c(N[C@@H]2Cc3ccccc3[C@H]2NC(C)=O)n1` (stereo partly shown) [Example I-14], the midpoint of inhibition, the IC50, lay at 2 nM. This IC50 lies about 1.5-fold lower than the previous one.

Compound `COc1cc(C(=O)NC2CCOCC2)ccc1Nc1ncc(C(F)(F)F)c(N[C@@H]2Cc3ccccc3[C@H]2NC(C)=O)n1` [Example I-15] registered an IC50 of 4 nM.

Compound `COCCNC(=O)c1ccc(Nc2ncc(C(F)(F)F)c(N[C@@H]3Cc4ccccc4[C@H]3NC(C)=O)n2)c(OC)c1` [Example I-16] came in with an IC50 of 2 nM. For the compound `CONC(=O)c1ccc(Nc2ncc(C(F)(F)F)c(N[C@@H]3Cc4ccccc4[C@H]3NC(C)=O)n2)c(OC)c1` [Example I-17], half-maximal inhibition (IC50) was put at 2 nM. In the case of `CNC(=O)c1ccc(Nc2ncc(C(F)(F)F)c(N[C@@H]3Cc4ccccc4[C@H]3NC(C)=O)n2)c(OC)c1` [Example I-18], the IC50 was determined as 2 nM. This lies in the single-digit nanomolar range. Turning to `COc1cc(C(=O)NC2CCC(N3CCOCC3)CC2)ccc1Nc1ncc(C(F)(F)F)c(N[C@@H]2Cc3ccccc3[C@H]2NC(C)=O)n1` (stereo partly shown) [Example I-19], half-maximal inhibition (IC50) was put at 3 nM. `COc1cc(C(=O)NCCN(C)C)ccc1Nc1ncc(C(F)(F)F)c(N[C@@H]2Cc3ccccc3[C@H]2NC(C)=O)n1` [Example I-20] gave an IC50 of 1 nM. `COc1cc(N2CCN(C)CC2)ccc1Nc1ncc(C(F)(F)F)c(N[C@@H]2Cc3ccccc3[C@H]2NC(C)=O)n1` [Example I-26] returned an IC50 of 2 nM. Against the preceding compound, the IC50 is about 2-fold higher. In turn, `CNC(=O)c1ccc(Nc2ncc(Cl)c(N[C@@H]3Cc4ccccc4[C@H]3N(C)S(C)(=O)=O)n2)c(OC)c1` [Example I-34] gave an IC50 of 7 nM. `COc1cc(CN2CCOCC2)ccc1Nc1ncc(C(F)(F)F)c(N[C@@H]2Cc3ccccc3[C@H]2NC(C)=O)n1` [Example I-38]: inhibition was half-maximal at 2 nM (IC50). As to `COc1cc(N2CCN(C)CC2)ccc1Nc1ncc(C(F)(F)F)c(N[C@@H]2Cc3ccccc3[C@H]2N(C)S(C)(=O)=O)n1` [Example I-39, N-((1R,2R)-2-{2-[2-methoxy-4-(4-methyl-piperazin-1-yl)-phenylamino]-5-trifluoromethyl-pyrimidin-4-ylamino}-indan-1-yl)-N-methyl-methanesulphonamide], the concentration for half-maximal inhibition (IC50) is 3 nM.

Turning to `COc1cc(N2CCN(CC(=O)N(C)C)CC2)ccc1Nc1ncc(C(F)(F)F)c(N[C@@H]2Cc3ccccc3[C@H]2N(C)S(C)(=O)=O)n1` [Example I-40], the IC50 stood at 3 nM. This counts as single-digit nanomolar. On to `COCCNC(=O)c1ccc(Nc2ncc(C(F)(F)F)c(N[C@@H]3Cc4ccccc4[C@H]3N(C)S(C)(=O)=O)n2)c(OC)c1` [Example I-45], for which half-maximal inhibition (IC50) required 2 nM. Next, `COc1cc(C(=O)NC2CCN(C)CC2)c(F)cc1Nc1ncc(C(F)(F)F)c(N[C@@H]2Cc3ccccc3[C@H]2N(C)S(C)(=O)=O)n1` [Example I-46, 2-fluoro-4-{4-[(1R,2R)-1-(methanesulphonyl-methyl-amino)-indan-2-ylamino]-5-trifluoromethyl-pyrimidin-2-ylamino}-5-methoxy-N-(1-methyl-piperidin-4-yl)-benzamide]: 2 nM; `COc1cc(C(=O)NC2CCCN(C)C2)c(F)cc1Nc1ncc(C(F)(F)F)c(N[C@@H]2Cc3ccccc3[C@H]2N(C)S(C)(=O)=O)n1` (stereo partly shown) [Example I-47]: 3 nM. In turn, `COc1cc(C(=O)NCCN(C)C)c(F)cc1Nc1ncc(C(F)(F)F)c(N[C@@H]2Cc3ccccc3[C@H]2N(C)S(C)(=O)=O)n1` [Example I-48] returned an IC50 of 1 nM. Take `CNC(=O)c1cc(OC)c(Nc2ncc(C(F)(F)F)c(N[C@@H]3Cc4ccccc4[C@H]3N(C)S(C)(=O)=O)n2)cc1F` [Example I-49]: 6 nM corresponded to half-maximal inhibition (IC50). The result for `COc1cc(C(=O)NC2CCOCC2)c(F)cc1Nc1ncc(C(F)(F)F)c(N[C@@H]2Cc3ccccc3[C@H]2N(C)S(C)(=O)=O)n1` [Example I-50] reads 8 nM; that for `COc1cc(C(=O)NC2CCC(N3CCN(CC4CC4)CC3)CC2)c(F)cc1Nc1ncc(C(F)(F)F)c(N[C@@H]2Cc3ccccc3[C@H]2N(C)S(C)(=O)=O)n1` (stereo partly shown) [Example I-51], 4 nM; that for `COc1cc(C(=O)NCCN(C)C)ccc1Nc1ncc(C(F)(F)F)c(N[C@@H]2Cc3ccccc3[C@H]2N(C)S(C)(=O)=O)n1` [Example I-52], 1 nM. `COc1cc(C(=O)NC2CCN(C)CC2)c(C)cc1Nc1ncc(C(F)(F)F)c(N[C@@H]2Cc3ccccc3[C@H]2N(C)S(C)(=O)=O)n1` [Example I-53] displayed an IC50 of 1 nM. Next, `COc1cc(C(=O)NCCN(C)C)c(C)cc1Nc1ncc(C(F)(F)F)c(N[C@@H]2Cc3ccccc3[C@H]2N(C)S(C)(=O)=O)n1` [Example I-54]: 0.84 nM; `COc1cc(N2CCN(CC3CC3)CC2)ccc1Nc1ncc(C(F)(F)F)c(N[C@@H]2Cc3ccccc3[C@H]2N(C)S(C)(=O)=O)n1` [Example I-56]: 3 nM; `COc1cc(N2CCN(C3COC3)CC2)ccc1Nc1ncc(C(F)(F)F)c(N[C@@H]2Cc3ccccc3[C@H]2N(C)S(C)(=O)=O)n1` [Example I-57]: 3 nM. Consider `COc1cc(C(=O)NCCN(C)C)c(Cl)cc1Nc1ncc(C(F)(F)F)c(N[C@@H]2Cc3ccccc3[C@H]2N(C)S(C)(=O)=O)n1` [Example I-58], for which the concentration for half-maximal inhibition (IC50) came to 4 nM. Compound `COc1cc(C(=O)NOCCN(C)C)ccc1Nc1ncc(C(F)(F)F)c(N[C@@H]2Cc3ccccc3[C@H]2N(C)S(C)(=O)=O)n1` [Example I-59] returned an IC50 of 0.83 nM.
